The numbers were not newly measured in patent US20100076052A1, “PERINDOPRIL FORMULATIONS” (priority 2008, published 2010), which cites them from elsewhere.

`CCCC(N[C@@H](C)C(=O)N1[C@H](C(=O)O)C[C@@H]2CCCC[C@@H]21)C(=O)OCC` (stereo partly drawn) [Perindopril erbumine, (2S,3αS,7αS)-1-[(S)—N—[(S)-1-carboxybutyl]alanyl]hexahydro-2-indolinecarboxylic acid, 1-ethyl ester, compound with t-butylamine (1:1)]: the solubility in alcohol entry (alcohol) was “freely soluble”. Also, under “chloroform”, the solubility in chloroform entry is reported as “freely soluble”. Further, the solubility in water (water) was 60 % w/w.
